Where “and” joins values, the source holds several entries; their conditions need not be identical. Identical values can stand only once.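 Cultured in 96-well plates, cells were exposed to test compound for 48 hours across five concentrations. GI50 = concentration required for 50% inhibition of growth. TGI: concentration producing complete growth inhibition.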
What was measured:
Assay in all cases: NCI anticancer screen, dose series, 48 h
786-0 renal = tested on: 786-0 renal
HOP-62 NSCLC = tested on: HOP-62 NSCLC
HOP-92 NSCLC = tested on: HOP-92 NSCLC
K-562 leukemia = tested on: K-562 leukemia
NCI-H226 lung = tested on: NCI-H226 lung
NCI-H460 lung = tested on: NCI-H460 lung
SK-MEL-5 melanoma = tested on: SK-MEL-5 melanoma
U251 CNS = tested on: U251 CNS
MDA-MB-231 breast = tested on: MDA-MB-231 breast
NCI/ADR-RES ovarian = tested on: NCI/ADR-RES ovarian

Row | SMILES | TGI (786-0 renal) | TGI (HOP-62 NSCLC) | TGI (HOP-92 NSCLC) [µM] | TGI (K-562 leukemia) | TGI (NCI-H226 lung) [µM] | TGI (NCI-H460 lung) | TGI (SK-MEL-5 melanoma) [µM] | TGI (U251 CNS) | GI50 (K-562 leukemia) [µM] | TGI (MDA-MB-231 breast) [µM] | TGI (NCI/ADR-RES ovarian) [µM] | GI50 (786-0 renal) [µM] | GI50 (HOP-62 NSCLC) [µM] | GI50 (HOP-92 NSCLC) [µM] | GI50 (NCI-H226 lung) [µM] | GI50 (NCI-H460 lung) [µM] | GI50 (SK-MEL-5 melanoma) [µM] | GI50 (U251 CNS) [µM] | GI50 (MDA-MB-231 breast) [µM] | GI50 (NCI/ADR-RES ovarian) [µM]
1 | CC(=O)O/C(C)=C\C(=O)O/N=C(\N)c1ccc(C)cc1 | > 100 µM | > 100 µM | > 100 | 52.1 µM | 92.9 | > 100 µM | 58.5 | 40.5 µM |  |  |  |  |  |  |  |  |  |  |  | 
2 | O=C(N=Nc1c(O)[nH]c2ccccc12)c1ccccc1O | > 100 µM | > 100 µM |  | > 100 µM | > 100 | > 100 µM |  | 72.2 µM |  |  |  |  |  |  |  |  |  |  |  | 
3 | CC(O)C(NC(=O)C(CS)NC(=O)C(CO)NC(=O)C(CCCCN)NC(=O)C(Cc1c[nH]c2ccccc12)NC(=O)C(Cc1ccc(O)cc1)NC(=O)C(CS)NC(=O)C(N)Cc1ccccc1)C(N)=O (centres undefined) | > 25 µM and 79 µM | > 25 µM and 63.4 µM |  | > 25 µM and 32.1 µM | > 25 | > 25 µM and 53.8 µM | > 25 | > 25 µM and 63.1 µM | 17.8 | > 25 | > 25 |  |  |  |  |  |  |  |  | 
4 | CN(C)CCNC(=O)c1cccc(CO)c1[N+](=O)[O-] | > 100 µM | > 100 µM |  | > 100 µM | > 100 | > 100 µM | > 100 | > 100 µM |  | > 100 | > 100 |  |  |  |  |  |  |  |  | 
5 | CC(C)(C)C([O-])=C1C(=O)c2ccccc2C1=O.CC(C)(C)C([O-])=C1C(=O)c2ccccc2C1=O.CC[O-].CC[O-].[Ti+4] | > 100 µM | > 100 µM | > 100 | > 100 µM | > 100 | > 100 µM | 95.6 | > 100 µM | 44.9 |  |  | 47.2 | 37.7 | 26.9 | 56.7 | 32.1 | 42.2 | 41.6 |  | 
6 | CC(C)(C)N=CN1CCC(C(c2ccccc2)c2ccccc2)CC1 | > 100 µM | > 100 µM | > 100 | > 100 µM |  | > 100 µM | > 100 | > 100 µM |  |  |  |  |  |  |  |  |  |  |  | 
7 | NC(N)=N/N=C/c1c(-c2cc(Cl)sc2Cl)nc2n1CCS2 | 15.6 µM | 15.8 µM |  | 43.7 µM | 16.8 | > 50 µM | 18.2 | 14.4 µM | 16 | 15.6 | > 50 | 8.12 | 8.87 |  | 8.31 | 25.5 | 10.1 | 7.61 | 7.64 | > 50
8 | CCOC(=O)c1c2ccc(/C=C/C(=O)OC)ccc-2c(C(=O)OCC)c1N | > 100 µM |  | > 100 | > 100 µM | > 100 | > 100 µM | > 100 |  |  |  |  |  |  |  |  |  |  |  |  | 
9 | CCOC(=O)C(=O)Nc1c(C)cccc1CC | > 100 µM | > 100 µM | > 100 | > 100 µM | > 100 | > 100 µM | > 100 | > 100 µM |  |  |  |  |  |  |  |  |  |  |  | 
10 | CN(C)CCNc1cccc2sc3ccc(O)cc3c(=O)c12 | 6.28 µM | 6.58 µM |  | 5.6 µM | 23.1 | 2.47 µM | 3.25 |  | 2.4 | 3.72 | 12.7 | 2.23 | 2.29 |  | 5.94 | 0.548 | 1.69 |  | 1.48 | 3.14

Reference: PubChem BioAssay (NCI)
